Test results: PMC12193109, “Bioprospecting for Anti-Kinetoplastid Drug Discovery from Aloysia citrodora Essential Oil” (International Journal of Molecular Sciences, 2025)
Like-named read-outs stand apart in the source and are kept apart here.

Columns and labels:
T. cruzi epimastigotes = assay: In vitro trypanocidal activity on T. cruzi epimastigotes (alamarBlue); assay type: cell-based, Trypanosoma cruzi; settings: 72 h; for IC50: Trypanosoma cruzi
Method: In a 96-well plate, a serial dilution of the tested compounds was performed in the liver infusion tryptose medium supplemented with 10% heat-inactivated fetal bovine serum. Later, 100 µL of 5 × 10^5 cells/mL of epimastigotes was added to each well. Afterwards, 20 µL of alamarBlue® was added to each well, and the plate was maintained at 26 °C for 72 h.
(§1) The cytotoxicity effect of the tested compounds was conducted using macrophages of the murine cell line J774.A1 (American Type Culture Collection #TIB-67) as previously described. The cells were maintained in the DMEM medium at 37 °C in a 5% CO2 humidified incubator. All the plates containing alamarBlue® were analyzed using the plate reader EnSpire Multimode Plate Reader® at excitation and emission wavelengths of 570 and 585 nm, respectively (PerkinElmer, ThermoFisher Scientific, Madrid, Spain). The IC50 (concentrations able to inhibit 50% of parasites), IC90 (concentrations able to inhibit 90% of parasites), and CC50 (concentration able to inhibit 50% of murine macrophages) values were determined for each compound by nonlinear regression using the GraphPad Prism 9 software.

[1] = Cytotoxicity on murine macrophages; assay type: cell-based; settings: mouse, ± SD
Method: as §1

[2] = tested on: L. amazonensis promastigotes; assay: In vitro leishmanicidal activity on L. amazonensis promastigotes (Alamar Blue); assay type: cell-based, Leishmania amazonensis; settings: 72 h, promastigotes, 72 h, ± SD
Method: (§2) The assay was conducted using the Alamar Blue® method as previously described. […] In 96-well microtiter plates (Corning^TM, Corning, NY, USA), serial dilutions of the citral derivative were first prepared, and later 10^6 parasites/mL were added into each well. Subsequently, 10% Alamar Blue® was added to the entire plate. The plates were incubated for 72 h at 26 °C. The cytotoxicity effect of the tested compounds was conducted using macrophages of the murine cell line J774.A1 (American Type Culture Collection #TIB-67) as previously described. The cells were maintained in the DMEM medium at 37 °C in a 5% CO2 humidified incubator. […] The IC50 (concentrations able to inhibit 50% of parasites), IC90 (concentrations able to inhibit 90% of parasites), and CC50 (concentration able to inhibit 50% of murine macrophages) values were determined for each compound by nonlinear regression using the GraphPad Prism 9 software.

[3] = as above; assay type: cell-based, Leishmania amazonensis; settings: mouse; CC50 J774.A1 macrophages / IC50 L. amazonensis promastigotes; read-out: Selectivity SI (CC50/IC50), promastigotes
Method: as §2

[4] = tested on: L. amazonensis intracellular amastigotes; assay: In vitro leishmanicidal activity on L. amazonensis intracellular amastigotes; assay type: cell-based, Leishmania amazonensis; settings: Leishmania amazonensis; intracellular amastigotes; ± SD
[5] = as above; assay type: cell-based, Leishmania amazonensis; settings: mouse; CC50 J774.A1 macrophages / IC50 L. amazonensis amastigotes; read-out: Selectivity SI (CC50/IC50), amastigotes
L. amazonensis [6] = assay: Plasma membrane permeability (SYTOX Green); assay type: cell-based, Leishmania amazonensis; settings: IC90, 24 h
Method: (§3) The effect of compound 9 to modulate cell features was studied in the L. amazonensis parasites using various specific commercial kits. Parasite cells were incubated with the compound at the previously calculated IC90 for 24 h. Subsequently, cells were washed and submitted to different treatments as mentioned by the manufacturer’s instructions. In all the assays, the plate reader EnSpire Multimode Plate Reader® (PerkinElmer, ThermoFisher Scientific, Madrid, Spain) and/or the image base system fluorescence microscope EVOS M5000 (version 1.5.1500.493) were used for fluorescence intensity quantification. For each protocol, images of representative population cells were obtained using the inverted confocal microscope Leica DMI 4000 B with the Leica Application Suite X 3.5.5.19976 software and Leica HC PL APO 63x/1.40 OIL CS2 Objective (Barcelona, Spain).
SYTOX^TM Green (Life Technologies, Madrid, Spain), a cell-impermeable DNA-binding stain, was used to evaluate membrane permeability and integrity. The assay was conducted as detailed in the manufacture instructions and as previously described.

L. amazonensis [7] = assay: ATP level (CellTiter-Glo luminescence); assay type: cell-based, Leishmania amazonensis; settings: IC90, 24 h
Method: as §3
The adenosine triphosphate (ATP) level was measured using the CellTiter-Glo Luminescent Cell Viability Assay (Promega, Madrid, Spain). The mitochondrion in which most cellular oxidations occur is considered the main source of cell ATP, and any damage and/or malfunction of this organelle generate the depletion of ATP levels.

[8] = tested on: L. amazonensis promastigotes; assay: Mitochondrial membrane potential (JC-1 staining); assay type: cell-based, Leishmania amazonensis; settings: IC90, 24 h, JC-1 red/green fluorescence ratio
Method: as §3, with “For each protocol, images of representative population cells were obtained using the inverted confocal microscope Leica DMI 4000 B with the Leica Application Suite X 3.5.5.19976 software and Leica HC PL APO 63x/1.40 OIL CS2 Objective (Barcelona, Spain).” left out
To evaluate the damage caused by the tested compound on mitochondrial function, mitochondrial membrane potential, the adenosine triphosphate (ATP) level, and reactive oxygen species (ROS) were measured as follows: The evaluation of the mitochondrial membrane potential was carried out using the JC-1 assay. JC-1 is a specific stain of the mitochondria which fluorescence emission depends on the mitochondrial membrane potential. In healthy mitochondria, JC-1 agglomerates and emits red fluorescence, while unhealthy ones remain as a monomer and emit green fluorescence. […]

[9] = tested on: L. amazonensis promastigotes; assay: Double stain assay (Hoechst 33342/PI) for programmed cell death; assay type: cell-based, Leishmania amazonensis; settings: IC90, 24 h
Method: as §3
To identify the type of cell death occurring in treated Leishmania amazonensis, the Hoechst 33342 and propidium iodide (PI) dyes were employed. […] Post-treatment, three distinct staining patterns could be observed: blue fluorescence indicating cells […]; violet coloration resulting from the merge of blue and red fluorescence, representing late apoptotic cells; and red fluorescence corresponding to dead cells.

L. amazonensis [10] = assay: Intracellular ROS (CellROX Deep Red); assay type: cell-based, Leishmania amazonensis; settings: IC90, 24 h
Method: as §3, with “Parasite” for “The effect of compound 9 to modulate cell features was studied in the L. amazonensis parasites using various specific commercial kits. Parasite”, “Spain). The measure of reactive oxygen species (ROS) was measured after treatment for 24 h using the CellROX® Deep Red fluorescent probe (Invitrogen, Madrid, Spain). The mitochondrion constitute an essential organelle to neutralize the reactive oxygen species; the malfunction of this organelle would generate an imbalance between the antioxidants and the reactive oxygen.” for “Spain).”

[11] = Leishmania amazonensis, Alamar Blue, read-out: L. amazonensis IC50
[12] = Leishmania amazonensis, read-out: L. amazonensis Promastigotes IC50

Row | Structure (SMILES) | CC50 ([1]; J774.A1 macrophage cell line) | selectivity ratio [3] | IC50 [4] | selectivity ratio [5] | IC50 [2, 12] | further results
1 | O=C(Cn1ccnc1[N+](=O)[O-])NCc1ccccc1 [Benznidazole, reference compound] |  |  |  |  |  | IC50 (T. cruzi epimastigotes): 1.81 µM; IC50 (T. cruzi epimastigotes; alamarBlue, ± SD): 1.81 ± 0.5 µg/mL
2 | CC(C)=CCCC(C)=CC=O [Compound 1, 3,7-dimethyl-2,6-octadienal] | > 300 µM | 6.97 |  |  |  | IC50 [2, 11]: 10.9 µg/mL; L. amazonensis IC50 ([2]; Alamar Blue, listed as Citral (1)): 8.47 ± 4.59 µg/mL; T. cruzi IC50 (T. cruzi epimastigotes; alamarBlue, ± SD, listed as Citral (1)): 12.90 ± 1.92 µg/mL; IC50 (T. cruzi epimastigotes): 12.9 µM; IC50 (T. cruzi epimastigotes; alamarBlue, ± SD): 24.8 µg/mL
3 | CC(C)=CCC/C(C)=C/C=NO [Compound 2, citral oxime] | > 300 µM | 12.6 | 56.9 ± 19.1 µM | 9.39 | 40.8 ± 19.4 µM | 
4 | CC(=O)ON=C/C=C(\C)CCC=C(C)C [Compound 3, citral oxime acetate] |  |  |  |  | > 100 µM | 
5 | CCCC(=O)ON=C/C=C(\C)CCC=C(C)C [Compound 4, citral oxime butyrate] |  |  |  |  | > 100 µM | 
6 | CC(C)=CCC/C(C)=C/C=NOC(=O)c1ccccc1 [Compound 5, citral oxime benzoate] | > 300 µM | 10.4 |  |  | 29.3 ± 8.07 µM | 
7 | CC(C)=CCC/C(C)=C/C=NOC(=O)c1ccc([N+](=O)[O-])cc1 [Compound 6, citral oxime 4-nitrobenzoate] | > 300 µM | 9.25 |  |  | 34.2 ± 14.4 µM | 
8 | CC(C)=CCC/C(C)=C/C=NNC(N)=O [Compound 7, citral semicarbazone] | > 300 µM | 9.29 |  |  | 43.8 ± 12.1 µM | 
9 | CC(C)=CCCC(C)=CC=NNc1ccc([N+](=O)[O-])cc1[N+](=O)[O-] [Compound 9, citral 2,4-dinitrophenylhydrazone] |  | 2.98 | 21.4 ± 0.65 µM | 1.47 | 10.6 ± 4.78 µM | Effect on plasma membrane permeability (in words) (L. amazonensis [6]): can affect the cell’s membrane permeability; Reduction in ATP production in comparison to the negative controls (L. amazonensis [7]): 46.35%; CC50 ([1]; murine macrophages J774.A1): 31.6 ± 1.96 µM; Decrease of mitochondrial membrane potential in comparison with untreated cells [8]: 50%; Type of cell death (in words) [9]: induction of mitochondrial-dependent apoptosis; Intracellular ROS level (in words) (L. amazonensis [10]): significant increase in emitted fluorescence
10 | CCCCCCCCCCCCCCCCOP(=O)([O-])OCC[N+](C)(C)C [Miltefosine, reference compound] | 72.2 ± 8.85 µM | 11.2 | 3.12 ± 0.3 µM | 23.1 |  | Effect on plasma membrane permeability (in words) (L. amazonensis [6]): greater degree of damage to membrane permeability compared to compound 9; Reduction in ATP production in comparison to the negative controls (L. amazonensis [7]): 74.11%; Decrease of mitochondrial membrane potential in comparison with untreated cells [8]: 75%; IC50 [2, 11]: 2.64 ± 0.09 µg/mL; IC50 ([2]; read-out: L. amazonensis Promastigotes IC50): 2.64 µM
